Row | melting point | Compound
1 | 127 to 128 °C | N[C@H]1CCN(c2ccc3c(C(=O)NCC4CCCCC4)cccc3n2)C1 [Example 54, 2-[(3S)-3-Amino-1-pyrrolidinyl]-N-(cyclohexylmethyl)-5-quinolinecarboxamide]
2 | 150 to 151 °C | O=C(NCC1CCCCC1)c1c(Cl)ccc2nc(N3CC(NCCO)C3)ccc12 [Example 55, 6-Chloro-N-(cyclohexylmethyl)-2-[3-[(2-hydroxyethyl)amino]-1-azetidinyl]-5-quinolinecarboxamide]
3 | 115 to 120 °C | CC(C)(C)OC(=O)N(CCO)[C@H]1CCN(c2ccc3c(NC(=O)CC4CCCCC4)c(Cl)ccc3n2)C1 [Example 56, [1-[6-Chlor-5-[(cyclohexylacetyl)amino]-2-quinolinyl]-3-pyrrolidinyl](2-hydroxyethyl)-carbamic Acid 1,1-dimethylethyl Ester]
4 | 165 °C | Cc1ccc2ncccc2c1C(=O)NCC1CCCCC1 [Example 57, N-(Cyclohexylmethyl)-6-methyl-5-quinolinecarboxamide]
5 | 160 °C (dec.) | N[C@H]1CCN(Cc2ccc3c(NC(=O)CC4CCCCC4)c(Cl)ccc3n2)C1 [Example 59, N-[2-[[(3S)-3-Amino-1-pyrrolidinyl]methyl]-6-chloro-5-quinolinyl]-cyclohexaneacetamide]
6 | 173 to 176 °C | N[C@H]1CCCN(c2ccc3c(NC(=O)CC4CCCCC4)c(Cl)ccc3n2)C1 [Example 60, N-[2-[(3S)-3-Amino-1-piperidinyl]-6-chloro-5-quinolinyl]-cyclohexaneacetamide]
7 | 182 to 183 °C | O=C(CC1CCCCC1)Nc1c(Cl)ccc2nc(N3CCC[C@H](NCCO)C3)ccc12 [Example 61, N-[6-Chloro-2-[(3S)-3-[(2-hydroxyethyl)amino]-1-piperidinyl]-5-quinolinyl]-cyclohexaneacetamide]
8 | 192 to 194 °C | N[C@H]1CCN(c2ccc3c(NC(=O)CCC4CCCC4)c(Cl)ccc3n2)C1 [Example 62, N-[2-[(3S)-3-Amin-1-pyrrolidinyl]-6-chloro-5-quinlinyl]-cyclopentanepropanamide]
9 | 186 to 188 °C | O=C(CCC1CCCC1)Nc1c(Cl)ccc2nc(N3CC[C@H](NCCO)C3)ccc12 [Example 63, N-[6-Chloro-2-[(3S)-3-[(2-hydroxyethyl)amino]-1-pyrrolidinyl]-5-quinolinyl]-cyclopentanepropanamide]
10 | 310 to 313 °C | O=C(CC1CCCCC1)Nc1c(Cl)ccc2nc(N3CCC(n4cn[nH]c4=O)CC3)ccc12 [Example 64, N-[6-Chloro-2-[4-(1,5-dihydro-5-oxo-4H-1,2,4-triazol-4-yl)-1-piperidinyl]-5-quinolinyl]-cyclohexaneacetamide]
11 | 216 to 220 °C | O=C(O)CCCc1ccc2c(NC(=O)CC3CCCCC3)c(Cl)ccc2n1 [Example 67, 6-Chloro-5-[(cyclohexylacetyl)amino]-2-quinolinebutanoic Acid]
12 | 242 to 244 °C | O=C(O)CC1CCN(c2ccc3c(NC(=O)CC4CCCCC4)c(Cl)ccc3n2)CC1 [Example 68, 1-[6-Chloro-5-[(cyclohexylacetyl)amino]-2-quinolinyl]-4-piperidineacetic Acid]
13 | 199 to 201 °C | O=C(O)CCCCc1ccc2c(NC(=O)CC3CCCCC3)c(Cl)ccc2n1 [Example 70, 6-Chloro-5-[(cyclohexylacetyl)amino]-2-quinolinepentanoic Acid]
14 | 157 to 160 °C | O=C(NCC1CCCCC1)c1c(Cl)ccc2nc(N3CCC[C@@H]3C(=O)O)ccc12 [Example 71, 1-[6-Chloro-5-[[(cyclohexylmethyl)amino]carbonyl]-2-quinolinyl]-D-proline]
15 | 253 to 256 °C | O=C(NCCC1CCCCC1)c1c(Cl)ccc2nc(N3CCC(C(=O)O)CC3)ccc12 [Example 76, 1-[6-Chloro-5-[[(2-cyclohexylethyl)amino]carbonyl]-2-quinolinyl]-4-piperidinecarboxylic Acid]
16 | 210 to 212 °C | CC1(CC(=O)Nc2c(Cl)ccc3nc(N4CCC(C(=O)O)CC4)ccc23)CCCCC1 [Example 79, 1-[6-Chloro-5-[[(1-methylcyclohexyl)acetyl]amino]-2-quinolinyl]-4-piperidinecarboxylic Acid]
17 | 185 to 186 °C | O=C(CC1CCCCC1)Nc1c(Cl)ccc2nc(N3CCCC(NCCO)C3)ccc12 (centres unmarked) [Example 80, N-[6-Chloro-2-[3-[(2-hydroxyethyl)amino]-1-piperidinyl]-5-quinolinyl]-cyclohexaneacetamide]
18 | 157 to 158 °C | O=C(CC1CCCCC1)Nc1c(Cl)ccc2nc(N3CCCC3CNCCO)ccc12 (centres unmarked) [Example 81, N-[6-Chloro-2-[2-[[(2-hydroxyethyl)amino]methyl]-1-pyrrolidinyl]-5-quinolinyl]-cyclohexaneacetamide]

Row | melting point | Compound
19 | 158 to 159 °C | CNC1CCCN(c2ccc3c(NC(=O)CC4CCCCC4)c(Cl)ccc3n2)C1 (centres unmarked) [Example 82, N-[6-Chloro-2-[3-(methylamino)-1-piperidinyl]-5-quinolinyl]-cyclohexaneacetamide]
20 | 138 to 145 °C | CNCC1CCCN1c1ccc2c(NC(=O)CC3CCCCC3)c(Cl)ccc2n1 (centres unmarked) [Example 83, N-[6-Chloro-2-[2-[(methylamino)methyl]-1-pyrrolidinyl]-5-quinolinyl]-cyclohexaneacetamide]
21 | 257 to 259 °C | O=C(O)CN[C@H]1CCN(c2ccc3c(NC(=O)CC4CCCCC4)c(Cl)ccc3n2)C1 [Example 85, N-[(3S)-1-[6-Chloro-5-[(cyclohexylacetyl)amino]-2-quinolinyl]-3-pyrrolidinyl]-glycine]
22 | 204 to 207 °C | Cc1ccc2nc(N3CC[C@H](NCCO)C3)ccc2c1NC(=O)CC1CCCCC1 [Example 86, N-[2-[(3S)-3-[(2-Hydroxyethyl)amino]-1-pyrrolidinyl]-6-methyl-5-quinolinyl]-cyclohexaneacetamide]
23 | 178 to 200 °C | O=C(CC1CCCCC1)Nc1c(Cl)ccc2nc(N3CC[C@H](NS(=O)(=O)C(F)(F)F)C3)ccc12 [Example 88, N-[6-Chloro-2-[(3S)-3-[[(trifluoromethyl)sulfonyl]amino]-1-pyrrolidinyl]-5-quinolinyl]-cyclohexaneacetamide]
24 | 303 to 307 °C | CS(=O)(=O)NC(=O)N[C@H]1CCN(c2ccc3c(NC(=O)CC4CCCCC4)c(Cl)ccc3n2)C1 [Example 89, N-[6-Chloro-2-[(3S)-3-[[[(methylsulfonyl)amino]carbonyl]amino]-1-pyrrolidinyl]-5-quinolinyl]-cyclohexaneacetamide]
25 | 220 to 221 °C | O=C(CC1CCCCC1)Nc1c(Cl)ccc2nc(N3CC[C@H](NCCc4nnn[nH]4)C3)ccc12 [Example 101, N-[6-Chloro-2-[(3S)-3-[[2-(2H-tetrazol-5-yl)ethyl]amino]-1-pyrrolidinyl]-5-quinolinyl]-cyclohexaneacetamide]
26 | 275 °C | O=C(CC1CCCCC1)Nc1c(Cl)ccc2nc(N3CCC(c4nsc(=O)[nH]4)CC3)ccc12 [Example 103, N-[6-Chloro-2-[4-(4,5-dihydro-5-oxo-1,2,4-thiadiazol-3-yl)-1-piperidinyl]-5-quinolinyl]-cyclohexaneacetamide]
27 | 192 to 195 °C | O=C(CC1CCCCC1)Nc1c(Cl)ccc2nc(CCCCc3nnn[nH]3)ccc12 [Example 105, N-[6-Chloro-2-[4-(1H-tetrazol-5-yl)butyl]-5-quinolinyl]-cyclohexaneacetamide]
28 | 90 to 93 °C | O=C(NCC1CCCCC1)c1c(Cl)ccc2nc(CCCCc3nnn[nH]3)ccc12 [Example 106, 6-Chloro-N-(cyclohexylmethyl)-2-[4-(1H-tetrazol-5-yl)butyl]-5-quinolinecarboxamide]
29 | 177 to 181 °C | O=C(CC1CCCCC1)Nc1c(Cl)ccc2nc(N3CC[C@H](OCCc4nnn[nH]4)C3)ccc12 [Example 107, N-[6-Chloro-2-[(3S)-3-[2-(1H-tetrazol-5-yl)ethoxy]-1-pyrrolidinyl]-5-quinolinyl]-cyclohexaneacetamide]
30 | 185 to 190 °C | O=C(CC1CCCCC1)Nc1c(Cl)ccc2nc(N3CC[C@H](OCCc4noc(=O)[nH]4)C3)ccc12 [Example 108, N-[6-Chloro-2-[(3S)-3-[2-(4,5-dihydro-5-oxo-1,2,4-oxadiazol-3-yl)ethoxy]-1-pyrrolidinyl]-5-quinolinyl]-cyclohexaneacetamide]
31 | 295 to 300 °C | O=C(CC1CCCCC1)Nc1c(Cl)ccc2nc(N3CCC(c4nnn[nH]4)CC3)ccc12 [Example 109, N-[6-Chloro-2-[4-(1H-tetrazol-5-yl)-1-piperidinyl]-5-quinolinyl]cyclohexane-acetamide]
32 | 255 to 257 °C | O=C(NCC1CCCCC1)c1c(Cl)ccc2nc(N3CCC(c4nnn[nH]4)CC3)ccc12 [Example 110, 6-Chloro-N-(cyclohexylmethyl)-2-[4-(1H-tetrazol-5-yl)-1-piperidinyl]-5-quinolinecarboxamide]
33 | 252 to 255 °C | O=C(NCCC1CCCCC1)c1c(Cl)ccc2nc(N3CCC(c4nnn[nH]4)CC3)ccc12 [Example 111, 6-Chloro-N-(2-cyclohexylethyl)-2-[4-(1H-tetrazol-5-yl)-1-piperidinyl]-5-quinolinecarboxamide]
34 | 235 to 237 °C | N#CC1CCN(c2ccc3c(NC(=O)CC4CCCCC4)c(Cl)ccc3n2)CC1 [Example 113, N-[6-Chloro-2-(4-cyan-1-piperidinyl)-5-quinolinyl]-cyclhexaneacetamide]
35 | 187 to 189 °C | O=C(CC1CCCCC1)Nc1c(Cl)ccc2nc(N3CCC(NS(=O)(=O)C(F)(F)F)CC3)ccc12 [Example 114, N-[6-Chloro-2-[4-[[(trifluoromethyl)sulfonyl]amino]-1-piperidinyl]-5-quinolinyl]-cyclohexaneacetamide]
